“And” between values parts separate entries of the source, which are not always exact repeats. Identical values can stand only once.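 Cells were grown in 96-well plates and exposed to each compound for 48 hours at five concentrations; endpoints were interpolated linearly between bracketing concentrations, or set to the highest concentration if not reached. GI50 is the concentration that inhibits growth by half. Definition used: TGI = concentration required for complete inhibition of growth.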
How the values were obtained:
Experiment in all cases: NCI tumour cell line growth inhibition, 48 h
[1] = system: HL-60(TB) leukemia
[2] = system: HS 578T breast
[3] = system: HT29 colon
[4] = system: IGROV1 ovarian
[5] = system: LOX IMVI melanoma
[6] = system: NCI-H522 lung
[7] = system: OVCAR-3 ovarian
[8] = system: RXF 393 renal
[9] = system: SK-MEL-28 melanoma
[10] = system: SW-620 colon

Compound	GI50 [1]	TGI [1] [µM]	GI50 [2] [µM]	TGI [2] [µM]	GI50 [3] [µM]	TGI [3] [µM]	GI50 [4]	TGI [4] [µM]	GI50 [5] [µM]	TGI [5] [µM]	GI50 [6]	TGI [6] [µM]	GI50 [7] [µM]	TGI [7] [µM]	GI50 [8] [µM]	TGI [8] [µM]	GI50 [9] [µM]	TGI [9] [µM]	GI50 [10] [µM]	TGI [10] [µM]
COc1ccc(C(=O)c2cc3c(OC)c(OC)c(OC)cc3[nH]2)cc1	2.24 µM	61.8	4.25	> 100	4	> 100	9.68 µM	> 100	4.91	> 100	1.55 µM	6.04	9.07	> 100	10.2	95.7	8.79	> 100	5.87	> 100
C=CC1CC12C(=O)C1OC2(C)C2C(=O)c3c(O)ccc(O)c3C(=O)C12 (stereo unspecified)	1.19 µM	3.79	7.44	19.3	4.03	16	3.26 µM	> 100	2.35	10.6	6.23 µM	16.8	1.13	3.83	2.11	5.3	4.94	25.4	2.32	5.88
C/C(=N\N=C(/[Se])N1CC2CCC(CC2)C1)c1ccccn1	–	0.489	–	7.77	–	2.6	–	2.48	–	0.64	–	0.615	–	1.61	–	0.359	–	1.03	–	0.608
CC(=O)O/N=C1/C(c2c(O)[nH]c3cc(Br)ccc23)=Nc2ccccc21	1.88 µM	4.37	0.0698	1.79	1.84	3.65	1.27 µM	3.33	1.13	2.4	1.56 µM	3.68	0.771	2.14	0.385	1.61	2.22	4.9	1.82	3.46
CO[C@@H]1CC(=O)C2(CC(=O)O[C@@H]2/C=C(\C)CCC=C(C)C)C[C@@H]1O (stereo partly specified)	0.409 µM	2.32	4.74	> 50	1.35	> 50	1.09 µM	4.03	0.634	1.57	1.82 µM	> 50	0.839	2.28	0.818	2.92	0.83	1.86	0.754	> 50
O=C(c1ccco1)c1c(C(F)(F)F)n([O-])c2ccccc2[n+]1=O	0.175 µM	1.42	1.75	13.1	4.2	50	0.549 µM	1.21	0.548	2.1	0.468 µM	1.98	0.735	3.88	1.43	9.45	15.9	50	0.859	20.5
COc1cc(/C=C2\CCC(CN(C)C)C2=O)ccc1OC(=O)c1ccccc1 (stereo unspecified)	–	8.71	–	74.8	–	26.6	–	27.9	–	13	–	10.4	–	21.3	–	15.4	–	29.2	–	17.8
O=c1[nH]cnc2[nH]ncc12	> 79.9 µM and 108 µM	> 3420	2540	> 5000	842	> 5000	54.6 µM and 422 µM	> 5000	142	> 5000	> 84.4 µM and 272 µM	> 5000	269	> 1820	266	> 5000	2000	> 5000	356	> 5000
COc1ccc2c(c1)C(c1ccccc1Cl)=Nc1c(n[nH]c1C)N2	> 25 µM	> 25	3.43	20.3	> 18.7	> 25	> 25 µM	> 25	14.7	> 25	> 20 µM	> 25	> 25	> 25	3.7	> 25	> 25	> 25	> 16.1	> 25
C=C(c1ccc(C(=O)N(C)c2ccccc2N)cc1)C(C)N1C(=O)[C@H]2CCCN2C(=O)c2ccccc21 (stereo partly specified)	20.2 µM	80.2	53.1	> 100	16.1	80.2	69.5 µM	> 100	34.2	> 100	17.7 µM	> 100	82	> 100	> 100	> 100	31.2	> 100	38.1	> 100
O=C(Cc1cccc(OC(F)(F)F)c1)Nc1ccc(CCCCc2nnc(NC(=O)Cc3ccccn3)s2)nn1	8.34 µM	> 100	13.8	40.2	24.3	96.7	17.3 µM	> 100	25.9	> 100	12.2 µM	40.1	17	> 100	4.34	22.7	93.1	> 100	40.4	> 100
C=C1C(=O)O[C@H]2[C@H]1CC/C(COC(=O)CSCC(=O)OC/C1=C/CC[C@@]3(C)O[C@H]3[C@H]3OC(=O)C(=C)[C@@H]3CC1)=C\CC[C@@]1(C)O[C@@H]21	0.432 µM	2.07	3.52	19.3	1.22	2.56	1.47 µM	4.02	1.58	3.1	1.08 µM	2.49	0.832	2.12	0.416	1.52	1.55	3.61	1.02	2.44
COC(=O)[C@]12CC[C@@H](C)[C@H](C)[C@@H]1C1=CC[C@@H]3[C@@]4(C)C=C(O)C(=O)[C@@]5(C)COC(=C54)C[C@@]3(C)[C@]1(C)CC2	4.17 µM	19.9	16.1	49.9	10.5	25.9	8.42 µM	29.6	8.85	22.4	2.57 µM	9.17	11.5	24.4	7.09	24.9	16.4	38.9	11.3	26.3
Cc1ccc(-c2cc(C3=CC(=O)C=CC3=O)n(-c3ccc(S(N)(=O)=O)cc3)n2)cc1	37.3 µM	> 100	64.8	> 100	56.4	> 100	> 100 µM	> 100	31.2	> 100	59.9 µM	> 100	44.5	> 100	> 100	> 100	> 100	> 100	44.5	> 100
CN1CCN(Cc2ccc(NC(=O)c3ccc(C#Cc4c(N)ncc5ccc(F)cc45)cc3)cc2C(F)(F)F)CC1	0.935 µM	2.62	1.05	3.65	0.876	1.86	1.13 µM	2.56	0.929	1.69	0.86 µM	1.59	1.4	3.68	0.835	1.6	1.01	1.74	0.972	1.87
O=C(CCl)N1c2ccccc2Sc2ccc3ccccc3c21	1.07 µM	5.13	2.04	6.56	1.28	4.58	0.567 µM	1.5	0.143	0.299	0.509 µM	1.1	1.36	2.72	1.49	2.83	1.65	3.01	1.27	2.89
CC(C)NC(=O)OCc1c(COC(=O)NC(C)C)c(-c2ccc(Cl)cc2)n2c1CCC2	0.79 µM	9.21	2.91	11.8	4.02	26.4	1.59 µM	10.2	2.4	13.6	1.77 µM	5.66	3.08	10.3	1.85	4.32	7.52	22.2	3.35	19.2
O=C(N/N=C/c1ccccc1O)C(=O)Nc1ccc(F)cc1	2.02 µM	8.75	33.8	> 100	8.86	> 100	4.29 µM	> 100	4.28	> 100	3.01 µM	52	3.18	> 100	9.93	> 100	8.04	> 100	6.26	> 100
O=C(Nc1ccc(Cl)cc1)c1cc(-c2ccc(Cl)cc2)c2sc(=O)[nH]c2n1	1.27 µM	6.68	3.04	21.5	2.13	6.29	2.83 µM	28.9	2.88	10.6	0.408 µM	3.12	2.32	7.45	2.77	7.42	1.57	17.8	2.9	15.2
COc1cccc2c1C(=O)c1c(O)c3c(c(O)c1C2=O)C[C@@](O)(C(=O)CO)C[C@@H]3OC1C[C@H](N)[C@H](O)[C@H](C)O1 (stereo partly specified)	0.078 µM	0.593	0.132	–	0.0958	–	0.0901 µM	8.58	0.0178	0.181	0.0334 µM	0.317	0.167	–	0.0751	0.25	0.0797	0.198	0.0312	2.97
O=C(O)c1cc2cc(OCc3ccccc3)c(OCc3ccccc3)cc2[nH]1	22.9 µM	> 100	22	64.5	29.5	59.6	24.9 µM	54.2	18.1	35.4	24 µM	62.2	17.3	31.6	14.6	30.4	19.5	43.2	21.8	53.8
CCCCCCCCCCCCSC(=N)N	2.02 µM	4.27	17.3	38.8	2.2	5.73	2.77 µM	–	3.58	13.3	5.21 µM	21.6	10.3	26.2	6.64	26.6	13.7	27.9	2.73	8.14
c1ccc(-c2nc(-c3ccccc3)c(-c3ccccc3)[nH]2)cc1	–	36.9	–	> 82	–	> 100	–	> 100	–	> 100	–	> 100	–	> 100	–	> 100	–	> 100	–	> 100
COc1ccc2nc3cc(Cl)ccc3c(NCCCNCCC(C)O)c2c1 (stereo unspecified)	1.65 µM	3.92	1.05	3.62	0.172	1.25	0.39 µM	2.47	0.356	1.46	0.196 µM	0.75	0.368	1.68	0.414	1.74	–	–	0.234	2.25
COc1ccc(-n2c3c(c4c(CN5CCOCC5)c(O)ccc42)CCc2ccccc2C3=O)cc1	22.3 µM	> 100	> 100	> 100	–	0.0934	37.6 µM	> 100	67.3	> 100	7.28 µM	63.2	25.4	> 100	14.8	> 100	–	–	82.2	> 100

— PubChem BioAssay (NCI)
